*1 amine or outer side, *2 acyl side, *3 side chain or, on linkers, in order; H or OH if unused. Where a SMILES comes first, the peptide text is derived from it. [ ]: non-standard residue; d: D form. The star is where a group is joined. PABC = O=C(OCc1ccc(N[*:1])cc1)[*:2]; hPhe = N[C@@H](CCc1ccccc1)C(=O)O; Boc = CC(C)(C)OC(=O)*; Nlys = NCCCCNCC(=O)O; X2 = CC(=O)NN*
Columns and labels:
[1] = tested on: aorta of apolipoprotein E (apoE) knockout mouse; settings: in vivo
Method: (§1) Mice were fed a high-fat diet to accelerate plaque formation and compounds were tested in the mice between 37-41 weeks on diet. Test compounds were radiolabeled (^14C, ^99mTc, or ^111In as described above) and administered at 0.02-4.0 mCi/kg to anesthetized mice in a single, bolus injection via the tail vein. Blood samples were collected via the tail between 0-30 minutes postinjection for pharmacokinetic analysis and mice were euthanized by CO2 at 60 minutes for tissue harvesting. The aorta were flushed with saline through the left ventricle exiting via the femoral vein. The aorta were then removed from the heart to the renal bifurcation and additional tissue samples collected (blood, muscle, liver, kidney, heart, lung, spleen and innominate artery). All samples were weighed and assayed for radioactivity. Tissue uptake is expressed as percent of injected dose per gram of tissue (% ID/g). The aorta to blood ratios were calculated from the % ID/g data.

[2] = mouse, in vivo, iv
Method: as §1

With `CC(=O)NNC(=O)[C@@H](CC(C)C)NC(=O)OCc1ccc(NC(=O)[C@H](CC(C)C)NC(=O)[C@H](CCc2ccccc2)NC(=O)CN(CCCCNC(=O)OC(C)(C)C)C(=O)[C@H](CC(C)C)NC(=O)[C@@H]2CCCN2C(C)=O)cc1` [Example 142] (Ac-PL[Nlys](Boc)[hPhe]L[PABC][dL]-X2) the “Aorta/Blood Ratio” value [1] was 1.9 and the tissue uptake at 1 h [2] was 2.1 %ID/g.

From US20070014721A1, “Hydrazide conjugates as imaging agents” (priority 2005, published 2007)
